Data reported in paper PMC4718399 (Nature chemical biology, 2015).

Tests used:
[1] = target: T1, β2R (Homo sapiens, UniProt P07550, N187E, form not given); assay: Bimane fluorescence spectroscopy; format: biochemical; conditions: for basal (agonist-free) bimane emission λmax: bimane-labelled receptor reconstituted in rHDL of the given lipid, no ligand; for rate and magnitude of change in λmax upon agonist: rHDL of the given lipid, 200 μM isoproterenol, relative to basal fluorescence in detergent
[2] = target: T1, β2R; format: biochemical; conditions: 200μM solubilized lipid; for modulation of β2R activation by solubilized phospholipid: 200μM isoproterenol
[3] = target: T1, β2R; assay: Mass spectrometry quantification of lipids bound to purified β2R; conditions: β2R purified from Sf9 cells with 0.5% DDM

Compound	basal (agonist-free) bimane emission λmax [1]	rate and magnitude of change in λmax upon agonist [1]	modulation of β2R activation by solubilized phospholipid [2]	basal λmax shift ([2]; 1μM β2R, 500μM DDM, 600μM cholate) [nm]	share of all β2R-bound lipids [3]
CCCCCCCC/C=C\CCCCCCCC(=O)OC[C@H](COP(=O)([O-])OCC[N+](C)(C)C)OC(=O)CCCCCCC/C=C\CCCCCCCC [DOPC]	about 450 nm	intermediate	little or no effect	–	–
CCCCCCCC/C=C\CCCCCCCC(=O)OC[C@H](COP(=O)(O)OCC(O)CO)OC(=O)CCCCCCC/C=C\CCCCCCCC (stereo partly shown) [DOPG]	about 455 nm	fastest rate of change and the largest shift in λmax	strongest positive modulator	4	over 7%
phosphatidylglycerol [PG]	–	–	–	–	over 16%
CCCCCCCC/C=C\CCCCCCCC(=O)OC[C@H](COP(=O)(O)OC[C@H](N)C(=O)O)OC(=O)CCCCCCC/C=C\CCCCCCCC [DOPS]	–	–	positive effect albeit not as strong	–	–
CCCCCCCC/C=C\CCCCCCCC(=O)OC[C@H](COP(=O)(O)OCCN)OC(=O)CCCCCCC/C=C\CCCCCCCC [DOPE]	about 450 nm	smallest change and slowest rate of change	little or no effect	–	–
